In US4829086A, “Soft β-adrenergic blocking agents” (priority 1985, dated 1989):
Where two headings read alike, the source gives them in different places.

Tests used:
β-adrenergic [1] = experiment: β-adrenergic activity of the acid metabolite (statement)
[2] = Hydrolytic rate in 0.01 N aqueous sodium hydroxide, pH 12.0; format: physicochemical; settings: pH 12.0, ionic strength 0.10 M (NaCl), 27.3 ± 0.2° C.; for Observed pseudo first order hydrolytic rate constant k: 0.01 N NaOH, ± SEM; for half-life: 0.01 n naoh, pH 12, 0.01 N NaOH, read-out: Half-life t1/2
Description: (§1) Analytical Methods. A high pressure liquid chromatography (HPLC) method was developed for the determination of the rate constants. The chromatographic analysis was performed in a system consisting of Waters Associates Model 600-A Solvent Delivery System, Model U-6K Injector and Model 440 Dual Channel Absorbance Detector operated at 254 and 280 nm. A 30 cm×3.9 mm (internal diameter) reverse phase μBondpack C18 column (Waters Associates), operated at ambient temperature, was used for all separations. When plasma samples were analyzed, the column was protected with a 2.3 cm×3.9 mm (internal diameter) Guard Column (Waters) packed with μBondpack C18/Corasil packing material. The mobile phase used for the separation of 17 and its degradation product, 5, consisted of water, 1-hexane sulfonic acid in acetic acid (B-6 reagent, Waters), 0.1M triethanolamine and methanol (100:1:100:799). […] For the separation of compounds 10-16 and 18 and their degradation product 5, a mobile phase consisting of water, 1-hexane sulfonic acid in acetic acid (B-6 reagent, Waters), 0.1M triethanolamine and methanol (390:1:10:599) was used.
(§2) Determination of the Hydrolytic Rate Constants in Aqueous Solutions. A 0.01M phosphate buffer and 0.01N sodium hydroxide solution were prepared from freshly distilled deionized water. This ionic strength was maintained at 0.1M with sodium chloride. The pH of the phosphate buffer was determined at 37.0° C. with a pH meter standardized at this temperature. For determination of the hydrolytic rate constants, a fresh concentrated solution of the ester in methanol was added to the hydrolytic medium previously equilibrated to the desired temperature and mixed thoroughly to result in an initial concentration of about 5×10^-4 mol. liter^-1. All reactions were run under pseudo first order conditions. Samples of 25 μL were injected into the column at various time intervals and the pseudo first order rate constants were determined from disappearance of the compound by linear regression of natural logarithm of the peak height versus time plots. The half-life and standard error of the rate constant were calculated for each run.

[3] = Enzymatic hydrolytic cleavage in human plasma; format: in vitro ADME; settings: for Observed first order hydrolytic rate constant k: ± SEM; for half-life at 1000 µM: human, plasma
Description: as §1, §2
Determination of the Enzymatic Hydrolytic Cleavage Rates in Human Plasma. The freshly collected plasma used was obtained from the Civitan Regional Blood Center, Inc. (Gainesville, Fla.) and contained about 80% plasma diluted with anticoagulant citrate phosphate dextrose solution, U.S.P. The plasma was stored in a refrigerator and used within one week from the date it was collected.
A portion of 50 μL of a freshly prepared solution of the compound in methanol was added to 10 mL plasma, previously equilibrated at 37.0° C. in a water bath, and mixed thoroughly to result in an initial concentration of 1×10^-3 mol. liter^-1. One mL samples of plasma were withdrawn from the test medium, mixed immediately with 4.0 mL ice cold 95% v/v ethanol, centrifuged and the supernatant analyzed by HPLC. The first order hydrolytic rate constant was determined as before in the aqueous solutions and the results are listed in TABLE II below.

[4] = Hydrolysis in 0.01M phosphate buffer pH 7.4; format: physicochemical; settings: pH 7.4, 37° C.
Description: Analytical Methods. A high pressure liquid chromatography (HPLC) method was developed for the determination of the rate constants. The chromatographic analysis was performed in a system consisting of Waters Associates Model 600-A Solvent Delivery System, Model U-6K Injector and Model 440 Dual Channel Absorbance Detector operated at 254 and 280 nm. A 30 cm×3.9 mm (internal diameter) reverse phase μBondpack C18 column (Waters Associates), operated at ambient temperature, was used for all separations. When plasma samples were analyzed, the column was protected with a 2.3 cm×3.9 mm (internal diameter) Guard Column (Waters) packed with μBondpack C18/Corasil packing material. The mobile phase used for the separation of 17 and its degradation product, 5, consisted of water, 1-hexane sulfonic acid in acetic acid (B-6 reagent, Waters), 0.1M triethanolamine and methanol (100:1:100:799). […]
Determination of the Hydrolytic Rate Constants in Aqueous Solutions. […] The pH of the phosphate buffer was determined at 37.0° C. with a pH meter standardized at this temperature. […] Samples of 25 μL were injected into the column at various time intervals and the pseudo first order rate constants were determined from disappearance of the compound by linear regression of natural logarithm of the peak height versus time plots. The half-life and standard error of the rate constant were calculated for each run.

[5] = tested on: heart rate response to isoproterenol (β-adrenergic); experiment: Heart rate response to isoproterenol in rats (initial drug screening); format: in vivo, male Spraque-Dawley rats; settings: 6 mg/kg i.p.; for resting heart rate prior to administration of isoproterenol: mean ± SEM
From the text: (§3) Initial Drug Screening Protocol. Thirty-two male Spraque-Dawley rats (Blue Spruce Farms) initially weighing 300-450 gm were divided into seven different groups, each for a different drug to be tested: 12(n=4), 14(n=4), 17(n=5), 13(n=4) and 18(n=3), corresponding to the designated compounds 12, 14, 17, 13 and 18 (number of animals), respectively. The other two groups were controls (n=8, isoproterenol alone pretreated with carrier) and those treated with a known β-blocker, dl-propranolol (n=3). Ech animal was anesthetized with sodium pentobarbital (45 mg/kg) and the carotid artery was cannulated with PE-50 tubing. The cannula was subcutaneously threaded around the neck and exteriorized dorsally between the shoulder blades. Th cannula was filled with a heparin solution (300 μg/mL) and sealed with a solid 22 gauge stylet. The animals were housed in individual stainless steel cages, and two days were allowed for recovery from the surgery. Food and water were provided ad libitum. On the day of the experiment, the blood pressure and heart rate of each rat were monitored with a pressure transducer (Narco-Bio model P-1000) and the data recorded on a four-channel physiograph (Narco-Bio systems Marck IV). One hour was allowed as an equilibration period before any drugs were administered. All beta blockers were administered intraperitoneally at a dose of 6 mg/kg. Compounds 12 and 14 and dl-proranolol were dissolved in normal saline while compounds 13, 17 and 18 were dissolved in an ethanol: water solution (3:1). Depending on the trial, controls were administered the appropriate carrier. One hour after administration of the blocker, isoproterenol (Isuprel®, Wintrop Laboratories) was administered subcutaneously at a dose of 25 μg/kg. Blood pressures and heart rate also were recorded 3, 5, 10, 15, 20, 30, 45 and 60 minutes after isoproterenol administration. Both control and experimental animals were unrestrained and free moving in their home cage throughout the experiment. […] However, significant differences in the mean heart rate response amoung the 7 groups were observed: *p<0.005;**p<0.025. Comparisons between groups were made by the Newman-Keuls procedure with significance set at the 95% confidence interval. […] All data are shown as mean±standard error of the mean.

[6] = tested on: blood pressure response to isoproterenol; experiment: Blood pressure response to isoproterenol in rats; format: in vivo, male Spraque-Dawley rats; settings: 6 mg/kg i.p.; for mean change in blood pressure vs propranolol and compound 12-treated groups: isoproterenol 25 μg/kg s.c., FIG. 3
From the text: as §3
Symbols are the same as those described for FIG. 1. […] Data are shown as mean±standard error of the mean.

β-adrenergic [7] = settings: major metabolite found in the urine; Borg et al; cited from earlier work
[8] = 37.0 ± 0.1° C., read-out: Half-life t1/2

| Compound | Observed pseudo first order hydrolytic rate constant k [2] | half-life [2] [min] | Observed first order hydrolytic rate constant k ([3]; 37.0 ± 0.1° C.) [min⁻¹] | half-life at 1000 µM [3, 8] [min] | half-life [4] [days] | resting heart rate prior to administration of isoproterenol [5] [beat/minute] | mean change in blood pressure vs propranolol and compound 12-treated groups [6] | also measured |
| --- | --- | --- | --- | --- | --- | --- | --- | --- |
| CC(C)NCC(O)COc1ccc(CC(=O)O)cc1 (centres unmarked) [Compound 5, 4-(2-Hydroxy-3-isopropylamino)propoxyphenylacetic acid] | – | – | – | – | – | – | – | activity of acid (β-adrenergic [1]): inactive |
| CCCOC(=O)Cc1ccc(OCC(O)CNC(C)C)cc1 (centres unmarked) [Compound 11, n-Propyl 4-(2-hydroxy-3-isopropylamino)propoxyphenylacetate] | 0.103 ± 0.001 min⁻¹ | 6.73 | 0.143 ± 0.005 | 4.86 | 8.7 | – | – | – |
| CCCCOC(=O)Cc1ccc(OCC(O)CNC(C)C)cc1 (centres unmarked) [Compound 13, n-Butyl 4-(2-hydroxy-3-isopropylamino)propoxyphenylacetate] | 9.27 ± 0.07 × 10^-2 min^-1 | 7.48 | – | – | – | 340±14 | significantly lower (p<0.15) | control of heart rate 60 minutes after administration ([5]; FIG. 1): effectively control the heart rate; half-life at 1000 µM ([3]; read-out: in vitro plasma half-life): ~1 min; mean change in blood pressure at 10 minutes vs compound 12-treated group ([6]; 10 minutes after isoproterenol): different from the compound 12-treated group; mean change in blood pressure at 10 minutes vs compound 18 group ([6]; 10 minutes after isoproterenol): significantly different from the group treated with compound 18; mean change in blood pressure at 15 minutes vs compound 12, 18 and control vehicle ([6]; 15 minutes after isoproterenol): significantly different from groups pretreated with compound 12, 18 and the control vehicle |
| CC(C)NCC(O)COc1ccc(CC(=O)OCc2ccccc2)cc1 (centres unmarked) [Compound 14, Benzyl 4-(2-hydroxy-3-isopropylamino)propoxyphenylacetate] | 0.208 ± 0.004 min⁻¹ | 3.33 | 0.236 ± 0.007 | 2.93 | 13 | 405±22 | significantly lower (p<0.15) | – |
| CC(C)NCC(O)COc1ccc(CC(=O)O)cc1 (centres unmarked) [drawing 10] | – | – | – | – | – | – | – | activity as metabolite of metoprolol (β-adrenergic [7]): inactive metabolite |
